Experimental data from ChEMBL document CHEMBL4270569, “Crystal structure of the Eg5 - K858 complex and implications for structure-based design of thiadiazole-containing inhibitors” (Eur J Med Chem, 2018).

Experiments:
[1] = target: T1, Kinesin-like protein KIF11 (Homo sapiens, UniProt P52732); assay: Inhibition of basal ATPase activity of N-terminal His6-tagged human Eg5 motor domain (1 to 368 residues) expressed in Escherichia coli BL21 (DE3) by pyruvate kinase-lactate dehydrogenase coupled assay
T1 sequence (P52732 whole entry): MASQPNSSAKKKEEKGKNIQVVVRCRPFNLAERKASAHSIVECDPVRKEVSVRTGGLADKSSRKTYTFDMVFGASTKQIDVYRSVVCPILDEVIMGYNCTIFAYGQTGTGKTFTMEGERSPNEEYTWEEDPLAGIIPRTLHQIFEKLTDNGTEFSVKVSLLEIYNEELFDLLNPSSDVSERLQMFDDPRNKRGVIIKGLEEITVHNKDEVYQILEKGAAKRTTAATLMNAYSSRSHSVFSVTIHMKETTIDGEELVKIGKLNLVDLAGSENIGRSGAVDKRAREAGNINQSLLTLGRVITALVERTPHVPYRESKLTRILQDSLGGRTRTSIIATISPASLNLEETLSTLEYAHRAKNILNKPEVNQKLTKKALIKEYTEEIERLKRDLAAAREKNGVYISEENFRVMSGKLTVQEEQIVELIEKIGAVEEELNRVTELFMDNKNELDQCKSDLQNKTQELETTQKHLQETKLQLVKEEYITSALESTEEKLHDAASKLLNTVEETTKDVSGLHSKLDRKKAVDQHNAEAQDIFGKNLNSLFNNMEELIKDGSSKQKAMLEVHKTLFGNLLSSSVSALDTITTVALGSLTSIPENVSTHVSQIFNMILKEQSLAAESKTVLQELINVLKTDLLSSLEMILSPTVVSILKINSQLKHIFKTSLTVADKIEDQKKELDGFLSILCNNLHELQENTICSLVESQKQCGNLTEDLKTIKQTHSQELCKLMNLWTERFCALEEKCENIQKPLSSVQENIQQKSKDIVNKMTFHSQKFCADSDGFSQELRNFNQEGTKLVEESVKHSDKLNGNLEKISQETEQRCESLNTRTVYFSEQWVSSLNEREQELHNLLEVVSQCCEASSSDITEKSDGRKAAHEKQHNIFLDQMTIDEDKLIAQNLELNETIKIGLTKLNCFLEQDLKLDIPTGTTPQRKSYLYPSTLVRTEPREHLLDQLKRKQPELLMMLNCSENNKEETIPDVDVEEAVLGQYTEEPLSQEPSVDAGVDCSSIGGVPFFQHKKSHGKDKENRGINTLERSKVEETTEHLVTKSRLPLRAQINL

[2] = target: T1, Kinesin-like protein KIF11; assay: Inhibition of N-terminal His6-tagged microtubule-stimulated ATPase activity of human Eg5 motor domain (1 to 368 residues) expressed in Escherichia coli BL21 (DE3) by pyruvate kinase-lactate dehydrogenase coupled assay
[3] = target: T1, Kinesin-like protein KIF11; assay: Binding affinity to N-terminal His6-tagged human Eg5 motor domain (1 to 368 residues) expressed in Escherichia coli BL21 (DE3) by isothermal titration calorimetry method
[4] = target: T1, Kinesin-like protein KIF11; assay: Inhibition of microtubule-stimulated human Eg5 ATPase activity

| SMILES | IC50 [1] [nM] | other results |
| --- | --- | --- |
| CC(=O)NC1=NN(C(C)=O)C(c2cc(F)ccc2F)S1 (centres undefined) | 41100 |  |
| CC(=O)NC1=NN(C(C)=O)C(C)(C2CCCCC2)S1 (centres undefined) | 7500 |  |
| CC(=O)NC1=NN(C(C)=O)C(C)(c2ccc3ccccc3c2)S1 (centres undefined) | 15600 |  |
| CC(=O)NC1=NN(C(C)=O)C(C)(c2cnccn2)S1 (centres undefined) | 46900 |  |
| CC(=O)NC1=NN(C(C)=O)C(c2ccccc2)S1 (centres undefined) | 20000 |  |
| CC(=O)NC1=NN(C(C)=O)C(C)(c2ccncc2)S1 (centres undefined) | 59900 |  |
| CC(=O)NC1=NN(C(C)=O)C(C)(c2ccccn2)S1 (centres undefined) | 37200 |  |
| CC(=O)NC1=NN(C(C)=O)C(C)(c2cccnc2)S1 (centres undefined) | 8500 |  |
| CCNCCS(=O)(=O)NC[C@@]1(c2ccccc2)SC(NC(=O)C(C)(C)C)=NN1C(=O)C(C)(C)C [LITRONESIB] |  | IC50 [4]: 26 nM |
| CC(=O)NC1=NN(C(C)=O)C(c2cccc3ccccc23)S1 (centres undefined) | 53900 |  |

The remaining molecules from weak to strong by IC50 [1], led by results:

| IC50 [1] [nM] | SMILES | other results |
| --- | --- | --- |
| 5100 | CC(=O)NC1=NN(C(C)=O)C(C)(c2ccc(OC(C)=O)cc2)S1 (centres undefined) |  |
| 4300 | CC(=O)NC1=NN(C(C)=O)C(C)(c2ccco2)S1 (centres undefined) |  |
| 2200 | CC(=O)NC1=NN(C(C)=O)C(C)(c2ccsc2)S1 (centres undefined) |  |
| 1900 | CC(=O)NC1=NN(C(C)=O)C(C)(c2cccc3ccccc23)S1 (centres undefined) |  |
| 1700 | CC(=O)NC1=NN(C(C)=O)C(C)(c2cccs2)S1 (centres undefined) |  |
| 1460 | CCC1(c2ccccc2)SC(NC(C)=O)=NN1C(C)=O (centres undefined) |  |
| 950 | CC(=O)NC1=NN(C(C)=O)C(C)(c2ccc(Cl)s2)S1 (centres undefined) |  |
| 840 | CC(=O)NC1=NN(C(C)=O)C(C)(c2cc(F)ccc2F)S1 (centres undefined) |  |
| 740 | CC(=O)NC1=NN(C(C)=O)C(C)(c2ccccc2)S1 (centres undefined) | IC50 [2]: 740 nM; Kd [3]: 665 nM |
| 580 | CC(=O)NC1=NN(C(C)=O)[C@](C)(c2ccccc2)S1 | IC50 [2]: 493 nM; Kd [3]: 220 nM |
